The values that follow come from patent US5071965A, “Novel TC-99M complexes” (Mallinckrodt Medical, Inc., priority 1989, dated 1991).

The structures appear in SMILES notation.

This data set is described as follows: Biodistribution of Tc-99m complexes in guinea pigs (heart uptake, heart/blood). The settings on record: for 5 Minute Guinea Pig % HT Uptake: jugular vein injection; for 5 Minute Guinea Pig % HT Uptake / Guinea Pig Heart/Blood Ratio: 5 minutes, Tc-99m complex.

Description: The procedures used for determining biodistribution are as follows.
Guinea Pigs--The guinea pigs are anesthetized and the technetium complex is injected into the jugular vein after a cutdown. The animals are sacrificed after 5 minutes and the organs removed and counted as with the rats.
For guinea pigs, significant heart uptake is determined if the percentage of technetium in the heart is greater than 0.5% and the heart/blood ratio is greater than 1.

Regarding `CCCOCC(CNCc1ccccc1O)(CNCc1ccccc1O)CNCc1ccccc1O` [Example 96, 1,1,1-tris(2-hydroxyphenylmethylaminomethyl)-2-propoxyethane], the “guinea pig biodistributions, compared with the complex of Example 95” value (complex made from the reduced ligand) is on record as “identical”.

For the compound `CC(C)COCC(CN=Cc1ccccc1O)(CN=Cc1ccccc1O)CN=Cc1ccccc1O` (stereo not drawn) [Phenol, 2,2'-[[2-[[[(2-hydroxyphenyl)methylene]amino]methyl]-2-(2-methylpropoxy)methyl-1,3-propandiyl]bis(nitrilomethylidyne)]-], the “5 Minute Guinea Pig % HT Uptake” value was 1.72%. Same read-out and setting: the result for `CCCCCOCC(CN=Cc1ccccc1O)(CN=Cc1ccccc1O)CN=Cc1ccccc1O` (stereo not drawn) [Phenol, 2,2'-[[2-[[[(2-hydroxyphenyl)methylene]amino]methyl]-2-pentyloxymethyl-1,3-propandiyl]bis(nitrilomethylidyne)]bis-] reads 1.22%. On to `CCC(C)OCC(CN=Cc1ccccc1O)(CN=Cc1ccccc1O)CN=Cc1ccccc1O` (stereo not drawn) [Phenol, 2,2'-[[2-[[[(2-hydroxyphenyl)methylene]amino]methyl]-(1-methylpropoxy)methyl-1,3-propanediyl]bis(nitrilomethylidyne)]bis-], for which the “5 Minute Guinea Pig % HT Uptake” value was determined as 1.55%. Take `CC(C)OCC(CN=Cc1ccccc1O)(CN=Cc1ccccc1O)CN=Cc1ccccc1O` (stereo not drawn) [Phenol, 2,2'-[[2[[[(2-hydroxyphenyl)methylene]amino]methyl]-2-(1-methylethoxy)methyl-1,3-propanediyl]bis(nitrilomethylidyne)]bis-]: the “5 Minute Guinea Pig % HT Uptake” value was 0.57%.

Take `CCCCCC(CN=Cc1ccccc1O)(CN=Cc1ccccc1O)CN=Cc1ccccc1O` (stereo not drawn) [Phenol, 2,2'-[[2[[[(2-hydroxyphenyl)methylene]amino]methyl]-2-pentyl-1,3-propanediyl]bis(nitrilomethylidyne)]bis-]: the “5 Minute Guinea Pig % HT Uptake” value was 1.15%. On the same count and under the same terms, then `CCCCOCC(CN=Cc1ccccc1O)(CN=Cc1ccccc1O)CN=Cc1ccccc1O` (stereo not drawn) [Phenol, 2,2'[[-[[[(2-hydroxyphenyl)methylene]amino]methyl]-2-butoxymethyl-1,3-propandiyl]bis(nitrilomethylidyne)]bis-], with 1.463%; and `Cc1ccc(C=NCC(C)(CN=Cc2ccc(C)cc2O)CN=Cc2ccc(C)cc2O)c(O)c1` (stereo not drawn) [R5=H, R6=CH3, R7=H, R8=H, R3=H, R4=CH3, 3-Methylphenol, 6,6'-[[2-[[[(4-methyl-2-hydroxyphenyl)methylene]amino]methyl]-2-methyl-1,3-propanediyl]bis(nitrilomethylidyne)]bis-], with 1.51%. In the case of `CC(CN=Cc1cc(C(F)(F)F)ccc1O)(CN=Cc1cc(C(F)(F)F)ccc1O)CN=Cc1cc(C(F)(F)F)ccc1O` (stereo not drawn) [R5=H, R6=H, R7=CF3, R8=H, R3=H, R4=CH3], the “5 Minute Guinea Pig % HT Uptake” value was determined as 0.51%. With `Cc1ccc(O)c(C=NCC(C)(CN=Cc2cc(C)ccc2O)CN=Cc2cc(C)ccc2O)c1` (stereo not drawn) [R5=H, R6=H, R7=CH3, R8=H, R3=H, R4=CH3], the “Guinea Pig Heart/Blood Ratio” value came to 18 and the “5 Minute Guinea Pig % HT Uptake” value is 1.82%. As for `CC(CN=Cc1cc(F)ccc1O)(CN=Cc1cc(F)ccc1O)CN=Cc1cc(F)ccc1O` (stereo not drawn) [R5=H, R6=H, R7=F, R8=H, R3=H, R4=CH3], the “5 Minute Guinea Pig % HT Uptake” value is listed as 1.30%.

Regarding `Oc1ccccc1C=NCCN(CCN=Cc1ccccc1O)CCN=Cc1ccccc1O` [R5=H, R6=H, R7=H, R8=H, R3=H, R4=--, tris(2-salicylideneiminoethyl)amine], the “5 Minute Guinea Pig % HT Uptake” value was found to be 0.84%. The same measure, in the same setting: then `Oc1ccccc1C=NCC(CN=Cc1ccccc1O)CN=Cc1ccccc1O` (stereo not drawn) [R5=H, R6=H, R7=H, R8=H, R3=H, R4=H, phenol, 2,2'-[[2-[[[ (2-hydroxyphenyl)methylene]amino]methyl]-1,3-propanediyl]bis(nitrilomethylidyne)]bis-], with 1.29%; and `COc1cccc(O)c1C=NCC(C)(CN=Cc1c(O)cccc1OC)CN=Cc1c(O)cccc1OC` (stereo not drawn) [R5=H, R6=H, R7=H, R8=OCH3, R3=H, R4=CH3, 3-Methoxyphenol, 2,2'-[[2-[[[(6-methoxy-2-hydroxyphenyl)methylene]amino]methyl]-2-methyl-1,3-propanediyl]bis(nitrilomethylidyne)]bis-], with 1.55%. Turning to `CSc1ccc(O)c(C=NCC(C)(CN=Cc2cc(SC)ccc2O)CN=Cc2cc(SC)ccc2O)c1` (stereo not drawn) [R5=H, R6=H, R7=SCH3, R8=H, R3=H, R4=CH3, 4-methylthiophenol, 2,2'-[[2-[[[(5-methylthio-2-hydroxyphenyl)methylene]amino-]methyl]-2-methyl-1,3-propanediyl]bis(nitrilomethylidyne)]bis-], the “5 Minute Guinea Pig % HT Uptake” value is listed as 1.23%. As for `COc1ccc(C=NCC(C)(CN=Cc2ccc(OC)cc2O)CN=Cc2ccc(OC)cc2O)c(O)c1` (stereo not drawn) [R5=H, R6=OCH3, R7=H, R8=H, R3=H, R4=CH3, 3-Methoxyphenol, 6,6'-[[2-[[[(4-methoxy-2-hydroxyphenyl)methylene]amino]methyl]-2-methyl-1,3-propanediyl]bis(nitrilomethylidyne)]bis-], the “Guinea Pig Heart/Blood Ratio” value is listed as 16 and the “5 Minute Guinea Pig % HT Uptake” value was 2.11%. With `CSc1ccc(C=NCC(C)(CN=Cc2ccc(SC)cc2O)CN=Cc2ccc(SC)cc2O)c(O)c1` (stereo not drawn) [R5=H, R6=SCH3, R7=H, R8=H, R3=H, R4=CH3, 3-Methylthiophenol, 6,6'-[[2-[[[(4-methylthio-2-hydroxyphenyl)methylene]amino]methyl]-2-methyl-1,3-propanediyl]bis(nitrilomethylidyne)]bis-], the “5 Minute Guinea Pig % HT Uptake” value amounted to 1.72%. For `COC(=O)c1ccc(O)c(C=NCC(C)(CN=Cc2cc(C(=O)OC)ccc2O)CN=Cc2cc(C(=O)OC)ccc2O)c1` (stereo not drawn) [methyl-4-hydroxybenzoate, 3,3'-[[2-[[[(5-carbomethoxy-2-hydroxyphenyl)methylene]amino]methyl]-2-methyl-1,3-propanediyl]bis(nitrilomethylidyne)]bis-], the “5 Minute Guinea Pig % HT Uptake” value came out at 1.23%. With `COc1ccc(COCC(CN=Cc2ccccc2O)(CN=Cc2ccccc2O)CN=Cc2ccccc2O)cc1` (stereo not drawn) [phenol, 2,2'-[[2-[[[2-hydroxyphenyl)methylene]amino]methyl]-2-(4-methoxyphenyl)methoxymethyl-1,3-propanediyl]bis(nitrilomethylidyne)]bis-], the “5 Minute Guinea Pig % HT Uptake” value is listed as 1.08%. Turning to `CCCCCCCC(=O)OCC(CN=Cc1ccccc1O)(CN=Cc1ccccc1O)CN=Cc1ccccc1O` (stereo not drawn) [phenol, 2,2'-[[2-[[[(2-hydroxypheny)methylene]amino]methyl]-2-octanoyloxymethyl-1,3-propanediyl]bis(nitrilomethylidyne)]bis-], the “5 Minute Guinea Pig % HT Uptake” value is given as 0.88%. On to `COc1cc(COCC(CN=Cc2ccccc2O)(CN=Cc2ccccc2O)CN=Cc2ccccc2O)cc(OC)c1OC` (stereo not drawn) [phenol, 2,2'-[[2-[[[(2-hydroxyphenyl)methylene]amino]methyl]-2-(3,4,5-trimethoxyphenyl)methoxymethyl-1,3-propanediyl]bis(nitrilomethylidyne)]bis-], for which the “5 Minute Guinea Pig % HT Uptake” value amounted to 1.00%. Consider `CCOCC(CN=Cc1ccccc1O)(CN=Cc1ccccc1O)CN=Cc1ccccc1O` (stereo not drawn) [phenol, 2,2'-[[2-[[[(2-hydroxyphenyl)methylene]amino]methyl]-2-ethoxymethyl-1,3-propanediyl]bis(nitrilomethylidyne)]bis-], for which the “5 Minute Guinea Pig % HT Uptake” value is 1.71%.
